Reference: PMC9150124, “Design of a Potent, Selective, and Brain-Penetrant Inhibitor of Wnt-Deactivating Enzyme Notum by Optimization of a Crystallographic Fragment Hit” (Journal of Medicinal Chemistry, 2022)
≈ marks a conversion by molar mass, not a printed value. Where “and” joins values, the source holds several entries; their conditions need not be identical. Equal values may be shown once. Where a name gives a salt, the structure may show the parent alone. Read-outs that look alike come from different tables or passages of the source.

Key:
[1] = biological target: T1, human Notum (81–451 Cys330Ser) (Homo sapiens, UniProt Q6P988, C330S); test: Notum OPTS biochemical assay; settings: for IC50: mean
T1 construct: human Notum (81–451 Cys330Ser) as the enzyme; made in house
T1 sequence (Q6P988 81-451 C330S): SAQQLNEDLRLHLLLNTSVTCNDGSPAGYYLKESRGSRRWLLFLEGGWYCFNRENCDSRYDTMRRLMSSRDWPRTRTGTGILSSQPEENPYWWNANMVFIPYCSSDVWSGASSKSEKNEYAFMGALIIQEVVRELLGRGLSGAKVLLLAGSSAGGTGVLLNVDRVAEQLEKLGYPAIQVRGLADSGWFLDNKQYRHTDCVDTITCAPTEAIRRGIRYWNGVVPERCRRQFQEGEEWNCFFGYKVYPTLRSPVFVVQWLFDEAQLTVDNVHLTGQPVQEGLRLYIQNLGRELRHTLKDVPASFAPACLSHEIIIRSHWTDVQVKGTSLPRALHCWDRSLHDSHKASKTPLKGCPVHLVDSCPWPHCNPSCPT
Source text: The optimization of 6 to deliver this profile was directed at three principle areas of these hit structures: (1) aryl ring 7 (Table 1); (2) the C4 substituent on triazole 8 (Table 2); and (3) further fine-tuning of the triazole 9 (Table 3). […] This assay was used to establish SAR and to identify preferred leads for additional studies.
Methods have been described in detail elsewhere.[23]−[26] Representative concentration–response curves are provided in the Supporting Information.

P-gp (MDR1) = test: in vitro; settings: dog
MDR1 (P-gp) = test: in vitro; settings: dog
in vitro [2] = settings: dog
[3] = Aqueous solubility in PBS (pH 7.4); type: physicochemical; settings: for solubility: PBS pH 7.4, read-out: aq. solubility; for solubility thermodynamic: PBS, pH 7.4, n = 2, read-out: Thermodynamic Solubility @ RT, mean
Source text: Biosciences (Hyderabad, India) or WuXi AppTec (Shanghai, China).
Table S1: Representative assay protocol

[4] = Stability in mouse liver microsomes; type: in vitro ADME; parameters: MLM Stability Cli mean: unit not given here; settings: for half-life: mouse, liver microsomes, read-out: MLM Stability t1/2
in vitro [5] = settings: pH 7.4
Procedure: G. Plasma protein binding (PPB):
Method: rapid equilibrium dialysis.
Test System Mouse Plasma (K2EDTA)
Test compound concentration 10 µM (mouse) or 2 µM (rat)

Notum = biological target: T2, Notum (Homo sapiens, UniProt Q6P988); test: ABPP-TMT (FP-biotin) proteomic analysis in SW620 cells
T2 sequence (Q6P988 20-496): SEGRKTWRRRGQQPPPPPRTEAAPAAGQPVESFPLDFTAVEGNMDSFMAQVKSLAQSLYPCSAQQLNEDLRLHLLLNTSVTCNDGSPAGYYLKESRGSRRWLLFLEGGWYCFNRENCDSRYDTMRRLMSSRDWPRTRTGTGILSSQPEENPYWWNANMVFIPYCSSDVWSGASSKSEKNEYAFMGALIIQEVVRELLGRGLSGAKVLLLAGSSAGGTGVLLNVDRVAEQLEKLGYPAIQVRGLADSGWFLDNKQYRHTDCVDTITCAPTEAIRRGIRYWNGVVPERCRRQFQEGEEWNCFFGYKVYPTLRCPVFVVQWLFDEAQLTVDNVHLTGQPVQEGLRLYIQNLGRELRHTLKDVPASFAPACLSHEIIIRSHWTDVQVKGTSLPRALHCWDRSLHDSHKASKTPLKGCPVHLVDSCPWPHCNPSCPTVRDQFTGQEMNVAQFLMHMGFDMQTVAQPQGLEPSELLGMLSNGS

[6] = OPTS substrate, read-out: Notum IC50
[7] = MDCK-MDR1, MDCK-MDR1 AB Papp, apical to basal
[8] = MDCK-MDR1, MDCK-MDR1 BA Papp, basal to apical
[9] = MDCK-MDR1, MDR1-MDCKII A to B % Recovery
[10] = MDCK-MDR1, MDR1-MDCKII B to A % Recovery
[11] = SW620 conditioned media, 1e-8 M
[12] = SW620 conditioned media, 3e-8 M
[13] = SW620 conditioned media, 1e-7 M
[14] = SW620 conditioned media, 3e-7 M
[15] = SW620 conditioned media, 1e-6 M
[16] = SW620 conditioned media, 3e-6 M
[17] = SW620 conditioned media, 1e-5 M

CC(O)Cc1cn(-c2ccc(Cl)c(C(F)(F)F)c2Cl)nn1 (centres unmarked) [8d, 1-(1-(2,4-Dichloro-3-(trifluoromethyl)phenyl)-1H-1,2,3-triazol-4-yl)propan-2-ol]
IC50 ([1]; Notum IC50, OPTS substrate): > 1000 nM
IC50 [1, 6]: 1700 ± 1400 nM

CCOc1cccc(-n2cc(CO)nn2)c1 [7i, ((3-Ethoxyphenyl)-1H-1,2,3-triazol-4-yl)methanol]
IC50 [1, 6]: 230000 ± 20000 nM

OCc1cn(-c2ccc(F)cc2)nn1 [7j, ((4-Fluorophenyl)-1H-1,2,3-triazol-4-yl)methanol]
% I ([1]; @100 μM): c 40–50% I@100 μM.
IC50 [1, 6]: ~100000 nM and 100000 nM

CCOc1ccc(-n2cc(CO)nn2)cc1 [7n, ((4-Ethoxyphenyl)-1H-1,2,3-triazol-4-yl)methanol]
IC50 [1, 6]: 78000 ± 45000 nM

FC(F)(F)c1c(Cl)cnc(-n2ccnn2)c1Cl [9c, 3,5-Dichloro-2-(1H-1,2,3-triazol-1-yl)-4-(trifluoromethyl)pyridine]
Papp (P-gp (MDR1); [7]): 1.74 ×10⁻⁶ cm/s
Papp (P-gp (MDR1); [8]): 4.88 ×10⁻⁶ cm/s
efflux ratio (P-gp (MDR1); MDCK-MDR1, MDCK-MDR1 efflux ratio (ER)): 2.81
recovery (MDR1 (P-gp); [9]): 5.93%
recovery (MDR1 (P-gp); [10]): 65.2%
Papp (in vitro [2]; [7]): 2 ×10⁻⁶ cm/s
Papp (in vitro [2]; [8]): 5 ×10⁻⁶ cm/s
solubility [3]: 400 µg/mL and 1400 µM
solubility thermodynamic [3]: 399 µg/mL (≈ 1410 µM)
IC50 [1, 6]: 7.5 ± 1.6 nM
MLM Cli [4]: 4.9/ND μL/min/mg protein
MLM Stability Cli mean ([4]; Table S4): 4.94
half-life ([4]; Table S4): 2 h

Cc1cccc(-n2cc(CO)nn2)c1 [7e, ((3-Methylphenyl)-1H-1,2,3-triazol-4-yl)methanol]
% I ([1]; @10 μM): b 40–50% I@10 μM.
IC50 [1, 6]: ~10000 nM and 10000 nM

OC1(Cc2cn(-c3ccc(Cl)c(C(F)(F)F)c3Cl)nn2)COC1 [8e, 3-((1-(2,4-Dichloro-3-(trifluoromethyl)phenyl)-1H-1,2,3-triazol-4-yl)methyl)oxetan-3-ol]
IC50 [1, 6]: 7400 ± 1100 nM

OCc1cn(-c2cccc(F)c2)nn1 [7d, ((3-Fluorophenyl)-1H-1,2,3-triazol-4-yl)methanol]
IC50 [1, 6]: 25000 ± 3000 nM

OCCc1cn(-c2ccc(Cl)c(C(F)(F)F)c2Cl)nn1 [8b, 2-(1-(2,4-Dichloro-3-(trifluoromethyl)phenyl)-1H-1,2,3-triazol-4-yl)ethan-1-ol]
IC50 [1, 6]: 5700 ± 2500 nM

FC(F)(F)c1c(Cl)ccc(-n2cnnc2)c1Cl [9a, 4-(2,4-Dichloro-3-(trifluoromethyl)phenyl)-4H-1,2,4-triazole]
IC50 [1, 6]: 1300 ± 210 nM

N#Cc1cccc(-n2cc(CO)nn2)c1 [7h, ((3-Cyanophenyl)-1H-1,2,3-triazol-4-yl)methanol]
IC50 [1, 6]: 83000 ± 36000 nM

[2H]c1nnn(-c2ccc(Cl)c(C(F)(F)F)c2Cl)c1[2H] [d2-8l, 1-(2,4-Dichloro-3-(trifluoromethyl)phenyl)-1H-1,2,3-triazole-4,5-d2]
Papp (P-gp (MDR1); [7]): 47.8 ×10⁻⁶ cm/s
Papp (P-gp (MDR1); [8]): 35.4 ×10⁻⁶ cm/s
recovery (MDR1 (P-gp); [9]): 102%
recovery (MDR1 (P-gp); [10]): 111%
Papp (in vitro [2]; [7]): 48 ×10⁻⁶ cm/s
Papp (in vitro [2]; [8]): 35 ×10⁻⁶ cm/s
solubility [3]: 44 µg/mL and 155 µM
solubility thermodynamic [3]: 44 µg/mL (≈ 155 µM)
MLM Cli [4]: 5.4 μL/min/mg protein and 5.4/ND μL/min/mg protein
half-life ([4]; Table S4): 2.15 h

CC(O)c1cn(-c2ccc(Cl)c(C(F)(F)F)c2Cl)nn1 (centres unmarked) [8a, 1-(1-(2,4-Dichloro-3-(trifluoromethyl)phenyl)-1H-1,2,3-triazol-4-yl)ethan-1-ol]
IC50 [1, 6]: 1800 ± 1000 nM

NC(=O)c1cn(-c2ccc(Cl)c(C(F)(F)F)c2Cl)nn1 [8g, 1-(2,4-Dichloro-3-(trifluoromethyl)phenyl)-1H-1,2,3-triazole-4-carboxamide]
IC50 [1, 6]: 1200 ± 300 nM

N#Cc1ccc(-n2cc(CO)nn2)cc1 [7m, ((4-Cyanophenyl)-1H-1,2,3-triazol-4-yl)methanol]
IC50 [1, 6]: 270000 ± 310000 nM

O=C(O)c1cn(-c2ccc(Cl)c(C(F)(F)F)c2Cl)nn1 [8f, 1-(2,4-Dichloro-3-(trifluoromethyl)phenyl)-1H-1,2,3-triazole-4-carboxylic Acid]
IC50 [1, 6]: 31 ± 10 nM

OCc1cn(-c2ccccc2)nn1 [7a, (1-Phenyl-1H-1,2,3-triazol-4-yl)methanol]
IC50 [1, 6]: 110000 ± 30000 nM

CC(=O)CC(c1ccccc1)c1c(O)c2ccccc2oc1=O (centres unmarked) [Warfarin, reference compound]
recovery at 4 h, 2 µM (in vitro [5]; SD, rat): 100%
fraction unbound at 4 h, 2 µM (in vitro [5]; SD, rat, plasma): 0.0063
recovery at 5 h, 10 µM (in vitro [5]; mouse): 103%
Plasma protein binding (PPB), % bound (in vitro [5]; mouse, plasma, 5 h, 10 µM): 95.71%
fraction unbound at 5 h, 10 µM (in vitro [5]; mouse, plasma): 0.0429

OCCCc1cn(-c2ccc(Cl)c(C(F)(F)F)c2Cl)nn1 [8c, 3-(1-(2,4-Dichloro-3-(trifluoromethyl)phenyl)-1H-1,2,3-triazol-4-yl)propan-1-ol]
IC50 [1, 6]: 1800 ± 500 nM

Cc1cn(-c2ccc(Cl)c(C(F)(F)F)c2Cl)nn1 [8k, 1-(2,4-Dichloro-3-(trifluoromethyl)phenyl)-4-methyl-1H-1,2,3-triazole]
reduction in potency vs 7y [1]: 12 fold
IC50 [1, 6]: 110 ± 40 nM

Cc1ccc(-n2cc(CO)nn2)cc1 [7k, ((4-Methylphenyl)-1H-1,2,3-triazol-4-yl)methanol]
IC50 [1, 6]: 13000 ± 2000 nM

COCc1cn(-c2ccc(Cl)c(C(F)(F)F)c2Cl)nn1 [8j, 1-(2,4-Dichloro-3-(trifluoromethyl)phenyl)-4-(methoxymethyl)-1H-1,2,3-triazole]
IC50 [1, 6]: 200 ± 50 nM

FC(F)(F)c1c(Cl)ccc(-n2cnnn2)c1Cl [9b, 1-(2,4-Dichloro-3-(trifluoromethyl)phenyl)-1H-tetrazole]
IC50 [1, 6]: 140 ± 20 nM

O=C(O)CSc1ncnc2c(C3CC3)c(Cl)sc12 [compound 1, LP-922056, reference compound]
NOTUM intensity normalised to DMSO (Notum; [11]): 1.677
NOTUM intensity normalised to DMSO (Notum; [12]): 1.111
NOTUM intensity normalised to DMSO (Notum; [13]): 1.2088
NOTUM intensity normalised to DMSO (Notum; [14]): 0.5634
NOTUM intensity normalised to DMSO (Notum; [15]): 0.3108
NOTUM intensity normalised to DMSO (Notum; [16]): 0.1718
NOTUM intensity normalised to DMSO (Notum; [17]): 0.112
NOTUM intensity normalised to DMSO (Notum; SW620 lysate, 1e-8 M): 0.811
NOTUM intensity normalised to DMSO (Notum; SW620 lysate, 3e-8 M): 0.6714
NOTUM intensity normalised to DMSO (Notum; SW620 lysate, 1e-7 M): 0.5739
NOTUM intensity normalised to DMSO (Notum; SW620 lysate, 3e-7 M): 0.495
NOTUM intensity normalised to DMSO (Notum; SW620 lysate, 1e-6 M): 0.3711
NOTUM intensity normalised to DMSO (Notum; SW620 lysate, 3e-6 M): 0.4727
NOTUM intensity normalised to DMSO (Notum; SW620 lysate, 1e-5 M): 0.5374

CNC(=O)c1cn(-c2ccc(Cl)c(C(F)(F)F)c2Cl)nn1 [8h, 1-(2,4-Dichloro-3-(trifluoromethyl)phenyl)-N-methyl-1H-1,2,3-triazole-4-carboxamide]
IC50 [1, 6]: 2300 ± 220 nM

OCc1cn(-c2ccc(C(F)(F)F)c(C(F)(F)F)c2)nn1 [7v, ((3,4-Bis(trifluoromethyl)phenyl)-1H-1,2,3-triazol-4-yl)methanol]
IC50 [1, 6]: 2200 ± 4400 nM

NCc1cn(-c2ccc(Cl)c(C(F)(F)F)c2Cl)nn1 [8i, (1-(2,4-Dichloro-3-(trifluoromethyl)phenyl)-1H-1,2,3-triazol-4-yl)methanamine Hydrochloride]
IC50 [1, 6]: 910 ± 120 nM
NOTUM intensity normalised to DMSO (Notum; [11]): 1.002
NOTUM intensity normalised to DMSO (Notum; [12]): 0.8137
NOTUM intensity normalised to DMSO (Notum; [13]): 0.7326
NOTUM intensity normalised to DMSO (Notum; [14]): 0.3649
NOTUM intensity normalised to DMSO (Notum; [15]): 0.1945
NOTUM intensity normalised to DMSO (Notum; [16]): 0.1349
NOTUM intensity normalised to DMSO (Notum; [17]): 0.07262
NOTUM intensity normalised to DMSO (Notum; SW620 lysate, 1e-8 M): 1.016
NOTUM intensity normalised to DMSO (Notum; SW620 lysate, 3e-8 M): 0.7635
NOTUM intensity normalised to DMSO (Notum; SW620 lysate, 1e-7 M): 0.7415
NOTUM intensity normalised to DMSO (Notum; SW620 lysate, 3e-7 M): 0.5781
NOTUM intensity normalised to DMSO (Notum; SW620 lysate, 1e-6 M): 0.4746
NOTUM intensity normalised to DMSO (Notum; SW620 lysate, 3e-6 M): 0.3389
NOTUM intensity normalised to DMSO (Notum; SW620 lysate, 1e-5 M): 0.2883
